Test results as given in ChEMBL document CHEMBL5154901, “Development of Predictive Classification Models for Whole Cell Antimycobacterial Activity of Benzothiazinones” (J Med Chem, 2022).
Values after ≈ are worked out from the molar mass of the structure shown.

Experiments:
[1] = Metabolic stability in human liver microsomes at 20 uM assessed as intrinsic clearance measured up to 90 mins by LC-HRMS analysis; assay type: ADME, Microsome; conditions: read-out: CLH
[2] = Metabolic stability in human liver microsomes at 20 uM assessed as half life measured up to 90 mins by LC-HRMS analysis; assay type: ADME, Microsome
[3] = test system: Mycolicibacterium vaccae; assay: Antimycobacterial activity against Mycobacterium vaccae (JMRC:STI:10670) assessed as reduction in bacterial growth incubated for 42 hrs by serial dilution method; assay type: functional; conditions: Mycolicibacterium vaccae, JMRC:STI:10670, read-out: MIC
[4] = Cytotoxicity against human HeLa cells assessed as reduction in cell viability incubated for 72 hrs by methylene blue staining based colorimetric assay; assay type: toxicity

| SMILES | microsomal CLint at 20 µM [1] [µL/min/mg] | half-life at 20 µM [2] [min] | MIC [3] [µM] | CC50 at 72 h [4] [µM] |
| --- | --- | --- | --- | --- |
| O=c1nc(N2CC[C@H](c3ccccc3)[C@@H](O)C2)sc2c([N+](=O)[O-])cc(C(F)(F)F)cc12 | 26.7 | 52.5 | 0.0069 (≈ 0.00311 µg/mL) | 73.1 |
| O=c1nc(N2CCn3cc(C(F)(F)F)nc3C2)sc2c([N+](=O)[O-])cc(C(F)(F)F)cc12 |  |  | 0.0838 (≈ 0.039 µg/mL) | > 107 |
| O=C(O)Cc1ccccc1Nc1c(Cl)cccc1Cl [DICLOFENAC] | 222 | 6.3 |  |  |
| O=c1nc(N2CC[C@@H](c3ccc(F)cc3)[C@H](O)C2)sc2c([N+](=O)[O-])cc(C(F)(F)F)cc12 |  |  | 0.0132 (≈ 0.0062 µg/mL) | 68.4 |
| O=c1nc(N2CCC(c3ccc(CO)cc3)CC2)sc2c([N+](=O)[O-])cc(C(F)(F)F)cc12 |  |  | 0.0537 (≈ 0.025 µg/mL) | 19.6 |
| O=C(CN1CCN(c2nc(=O)c3cc(C(F)(F)F)cc([N+](=O)[O-])c3s2)CC1)N1CCCC1 |  |  | 0.0658 (≈ 0.031 µg/mL) | > 106 |
| CN(CC1(CO)CCCC1)c1nc(=O)c2cc(C(F)(F)F)cc([N+](=O)[O-])c2s1 |  |  | 0.0599 (≈ 0.025 µg/mL) | > 120 |
| O=c1nc(N2CCN(CC(F)(F)F)CC2)sc2c([N+](=O)[O-])cc(C(F)(F)F)cc12 | 13.5 | 103 | 0.007 (≈ 0.0031 µg/mL) | > 113 |
| N#Cc1ccccc1N1CCN(c2nc(=O)c3cc(C(F)(F)F)cc([N+](=O)[O-])c3s2)CC1 | 14.1 | 99 | 0.0087 (≈ 0.00401 µg/mL) | > 108 |
| O=C(CN1CCN(c2nc(=O)c3cc(C(F)(F)F)cc([N+](=O)[O-])c3s2)CC1)NCc1ccccc1 |  |  | 0.0985 (≈ 0.05 µg/mL) | 57.1 |
| O=C(CN1CCN(c2nc(=O)c3cc(C(F)(F)F)cc([N+](=O)[O-])c3s2)CC1)Nc1ccccc1 |  |  | 0.0253 (≈ 0.0125 µg/mL) | > 101 |
| O=c1nc(N2CCN(Cc3ccncc3)CC2)sc2c([N+](=O)[O-])cc(C(F)(F)F)cc12 |  |  | 0.0687 (≈ 0.031 µg/mL) | > 111 |
| COc1cc2c(cc1OC)[C@@H](C[C@@H](O)c1ccccc1)N(c1nc(=O)c3cc(C(F)(F)F)cc([N+](=O)[O-])c3s1)CC2 |  |  | 0.0425 (≈ 0.025 µg/mL) | > 85 |
| O=c1nc(N2CCN(CCc3ccccc3)CC2)sc2c([N+](=O)[O-])cc(C(F)(F)F)cc12 |  |  | 0.0172 (≈ 0.00799 µg/mL) | > 108 |
| O=c1nc(N2CC[C@](O)(c3ccc(F)cc3)[C@@H](O)C2)sc2c([N+](=O)[O-])cc(C(F)(F)F)cc12 |  |  | 0.0515 (≈ 0.025 µg/mL) | 73.3 |
| O=c1nc(N2CCN(Cc3ccc(OC(F)(F)F)cc3)CC2)sc2c([N+](=O)[O-])cc(C(F)(F)F)cc12 | 32.1 | 43.6 |  |  |
| Cc1ccc([C@@]2(O)CCN(c3nc(=O)c4cc(C(F)(F)F)cc([N+](=O)[O-])c4s3)C2)cc1 |  |  | 0.0554 (≈ 0.025 µg/mL) | > 111 |
| CN1CCN(C(=O)C(F)(F)C(F)(F)C(F)(F)C(=O)N2CCN(c3nc(=O)c4cc(C(F)(F)F)cc([N+](=O)[O-])c4s3)CC2)CC1 |  |  | 0.0376 (≈ 0.025 µg/mL) | > 75.2 |
| N#Cc1cccc(N2CCN(c3nc(=O)c4cc(C(F)(F)F)cc([N+](=O)[O-])c4s3)CC2)c1 |  |  | 0.0347 (≈ 0.016 µg/mL) | > 108 |
| O=c1nc(N2CCN(CC(F)(F)c3ccc(F)cc3)CC2)sc2c([N+](=O)[O-])cc(C(F)(F)F)cc12 |  |  | 0.0154 (≈ 0.00798 µg/mL) | 87.2 |
| CN(C(=O)CN1CCN(c2nc(=O)c3cc(C(F)(F)F)cc([N+](=O)[O-])c3s2)CC1)c1ccccc1 | 15.8 | 88.9 | 0.0061 (≈ 0.0031 µg/mL) | 70.3 |
| CN(CCCCCCO)c1nc(=O)c2cc(C(F)(F)F)cc([N+](=O)[O-])c2s1 |  |  | 0.0308 (≈ 0.0125 µg/mL) | 101 |

Further lines, with some results ahead:

| microsomal CLint at 20 µM [1] [µL/min/mg] | half-life at 20 µM [2] [min] | MIC [3] [µM] | SMILES | CC50 at 72 h [4] [µM] |
| --- | --- | --- | --- | --- |
| 22.4 | 88.9 |  | O=c1nc(N2CCN(C(c3ccccc3)C(F)(F)F)CC2)sc2c([N+](=O)[O-])cc(C(F)(F)F)cc12 (configuration not stated) |  |
| 30.9 | 45.3 |  | O=c1nc(N2CCN(CC(F)(F)c3ccc(F)c(F)c3)CC2)sc2c([N+](=O)[O-])cc(C(F)(F)F)cc12 |  |
|  |  | 0.0485 (≈ 0.025 µg/mL) | O=c1nc(N2CC[C@@](O)(COc3ccc(F)cc3)[C@H](O)C2)sc2c([N+](=O)[O-])cc(C(F)(F)F)cc12 | 18.4 |
|  |  | 0.124 (≈ 0.0618 µg/mL) | CN1CCC(CCCC2CCN(c3nc(=O)c4cc(C(F)(F)F)cc([N+](=O)[O-])c4s3)CC2)CC1 | 20.1 |
| 25.7 | 54.6 | 0.0049 (≈ 0.00241 µg/mL) | O=c1nc(N2CCn3cc(-c4ccc(F)cc4)nc3C2)sc2c([N+](=O)[O-])cc(C(F)(F)F)cc12 | > 102 |
|  |  | 0.13 (≈ 0.0622 µg/mL) | CC(=O)c1ccc(N2CCN(c3nc(=O)c4cc(C(F)(F)F)cc([N+](=O)[O-])c4s3)CC2)cc1 | > 105 |
|  |  | 0.0321 (≈ 0.0125 µg/mL) | CCCCCCN(C)c1nc(=O)c2cc(C(F)(F)F)cc([N+](=O)[O-])c2s1 | 75.5 |
| 23.2 | 60.3 |  | N#Cc1cccc(CN2CCN(c3nc(=O)c4cc(C(F)(F)F)cc([N+](=O)[O-])c4s3)CC2)c1 |  |
| 34.5 | 40.5 | 0.0115 (≈ 0.00622 µg/mL) | O=c1nc(N2CCC(OC3CCN(CC(F)(F)F)CC3)CC2)sc2c([N+](=O)[O-])cc(C(F)(F)F)cc12 | > 93 |
|  |  | 0.0277 (≈ 0.0125 µg/mL) | O=c1nc(N2CC[C@@H](c3ccccc3)[C@H](O)C2)sc2c([N+](=O)[O-])cc(C(F)(F)F)cc12 | > 93 |
|  |  | 0.0267 (≈ 0.0125 µg/mL) | O=c1nc(N2CC[C@](O)(c3ccccc3)[C@@H](O)C2)sc2c([N+](=O)[O-])cc(C(F)(F)F)cc12 | 73 |
|  |  | 0.0591 (≈ 0.025 µg/mL) | COc1ccc2c(c1)CN(c1nc(=O)c3cc(C(F)(F)F)cc([N+](=O)[O-])c3s1)C2 | > 118 |
|  |  | 0.0243 (≈ 0.0125 µg/mL) | O=c1nc(N2CC[C@](O)(COc3ccc(F)cc3)[C@@H](O)C2)sc2c([N+](=O)[O-])cc(C(F)(F)F)cc12 | 34.3 |
|  |  | 0.0716 (≈ 0.025 µg/mL) | CN(CCO)c1nc(=O)c2cc(C(F)(F)F)cc([N+](=O)[O-])c2s1 | 80.2 |
|  |  | 0.0515 (≈ 0.025 µg/mL) | O=c1nc(N2CC[C@@](O)(c3ccc(F)cc3)[C@H](O)C2)sc2c([N+](=O)[O-])cc(C(F)(F)F)cc12 | 66.1 |
|  |  | 0.0286 (≈ 0.0125 µg/mL) | O=c1nc(N2Cc3ccccc3[C@H](CO)C2)sc2c([N+](=O)[O-])cc(C(F)(F)F)cc12 | 86.4 |
|  |  | 0.016 (≈ 0.00801 µg/mL) | O=c1nc(N2CCN(CC(F)(F)c3ccccc3)CC2)sc2c([N+](=O)[O-])cc(C(F)(F)F)cc12 | > 100 |
|  |  | 0.0535 (≈ 0.025 µg/mL) | O=c1nc(N2CC[C@@](O)(c3ccccc3)[C@H](O)C2)sc2c([N+](=O)[O-])cc(C(F)(F)F)cc12 | 68.5 |
